As a reminder, the AC50 is the concentration giving half of the maximal activity seen.

The source made the active and inactive calls. No rule for the calls is given here.

The first test is described as follows: reduced viability of parasite-Hsp90 expressing yeast – ATP luminescence, 48 h, cherry-picked samples, anti-malarial Hsp90 inhibitor project, dose response (AID 540268).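 As to activity change, negative = inhibition: 0% = neutral control wells and -100% = positive control wells.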 Particulars: yeast expressing the parasite Hsp90, ATP luminescence.
Regarding `CC(C)(C)C1C/C(=C/c2ccccn2)C(=O)/C(=C/c2ccccn2)C1` (configuration not stated), the AC50 was 8.29 µM.

Take `COc1ccccc1N=Nc1ccc(O)c2ncccc12`: the AC50 is 4.31 µM.

With `COc1cccc(/C=N/NC(=O)C(=O)Nc2ccccc2OC(F)(F)C(F)F)c1O`, the AC50 is 0.731 µM.

In the case of `CC(C)(C)c1cc(C(c2cccnc2)N2CCN(CCO)CC2)cc(C(C)(C)C)c1O` (configuration not stated), the AC50 was 25 µM.

Consider `COc1ccc(C2=CC3=C(Br)C(=O)C(C)(OC(=O)C4CCCC4)C(=O)C3=CO2)cc1` (configuration not stated), for which the AC50 is 4.4 µM.

For `Cc1ccc(O)c(NC(=S)NC(=O)c2ccc(-c3ccc(Cl)cc3)o2)c1`, the AC50 was 14.7 µM.

For the compound `CSc1nnc2c3cc(F)ccc3n(C)c2n1`, the AC50 was 5.49 µM.

As to `COC1CCC(OC2CC(C3(C)CCC4(CC(O)C(C)C(C(C)/C=C(\C)C(=O)C(C)CC(C)C(=O)O)O4)O3)OC3(OC(C4OC(O)(CO)C(C)CC4C)CC3C)C2C)OC1C` (configuration not stated), the AC50 is 4.84 µM.

For the compound `Oc1c(C(c2ccccc2Cl)N2CCCC2)ccc2cccnc12` (configuration not stated), the AC50 is 3.51 µM.

Take `CCCCCCCC/C=C\CCCCCCCC(=O)NCCO`: the AC50 was 9.25 µM.

As for `COC(=O)c1ccc(N2C(=O)CC(N(C)Cc3ccccc3)C2=O)cc1` (configuration not stated), the AC50 was 8.53 µM.

For `COc1ccc2c(c1)OC[C@H]1[C@H]2N2C(=O)c3cc(C)ccc3NC(=O)[C@@]2(C)[C@H]1c1ccccc1`, the AC50 is 0.988 µM.

For `O=C(/C=C/c1ccccc1)CCN1CCCCC1`, the AC50 is 4.02 µM.

Regarding `Cc1[nH]c2ccc(C(=O)N3CCN(c4cccc(Cl)c4)CC3)cc2c1C`, the AC50 is 8.89 µM.

As for `CC(=NNC(=S)N1CCC1)c1ccccn1`, the AC50 was 1.72 µM.

Turning to `COc1ccc(-c2nc(-c3ccccn3)no2)cc1`, the AC50 is 16.2 µM.

`CCCCC(=O)NC(c1ccc(C(C)C)cc1)c1ccc2cccnc2c1O` (configuration not stated): the AC50 is 6.98 µM.

`O=C(C=P(c1ccccc1)(c1ccccc1)c1ccccc1)c1ccccc1-c1ccccc1C(=O)C=P(c1ccccc1)(c1ccccc1)c1ccccc1`: the AC50 was 5.12 µM.

Consider `O=C(O)c1cccc2c1Cc1cc(Cl)ccc1-2`, for which the AC50 is 1.13 µM.

Take `CCCCCCCCCCCCCCCC[N+](C)(C)CCl`: the AC50 was 4.3 µM.

Consider `O=C1C=C(c2ccc(Cl)cc2)C(=O)N1Nc1ccccc1`, for which the half-maximal activity concentration (AC50) is less than 0.195 µM.

With `O=C(Nc1ccccc1N1CCOCC1)c1ccc([N+](=O)[O-])s1`, the AC50 was 8.44 µM.

With `O=[N+]([O-])c1cccc(SSc2cccc([N+](=O)[O-])c2)c1`, the AC50 was 4.62 µM.

With `Nc1ncnc2c1ncn2C1OC(COP(=O)(O)O)C(O)C1O` (configuration not stated), the AC50 was 2.27 µM.

With `COc1ccc(Cl)cc1C(Nc1cccnc1)c1ccc2cccnc2c1O` (configuration not stated), the AC50 is 1.35 µM.

As for `CCN(CC)C1CC(=O)N(c2cccc(Cl)c2)C1=O` (configuration not stated), the AC50 was 0.97 µM.

On to `Cc1c(C(=O)N(Cc2ccccc2)Cc2cccs2)cnn1-c1ccc(Cl)cc1`, for which the AC50 is 5.05 µM.

Consider `COc1cccc2c1C(=O)c1c(O)c3c(c(O)c1C2=O)CC(O)(C(C)=O)CC3OC1CC(N(C)C)C(O)C(C)O1` (configuration not stated), for which the AC50 was 1.58 µM.

As for `Cc1ccc(C(=O)ONC(=O)c2ccc(Cl)cc2)cc1[N+](=O)[O-]`, the AC50 is 0.387 µM.

In the case of `CC(=O)Oc1ccccc1C(=O)C=Cc1cccc([N+](=O)[O-])c1`, the AC50 is 1.66 µM.

As to `CN1CCc2nc3sc(C(=O)C45CC6CC(CC(C6)C4)C5)c(N)c3cc2C1`, the AC50 was 0.502 µM.

As to `O=C1Nc2ccc(Br)cc2/C1=C/C(=O)c1ccc2c(c1)OCO2`, the half-maximal activity concentration (AC50) was 2.63 µM.

`Cc1ccc(C(=O)N2CCN(c3ccccc3Cl)CC2)cc1[N+](=O)[O-]`: the AC50 was 4.09 µM.

Regarding `CCCCC(=O)NC(c1cccs1)c1cc(Cl)c2cccnc2c1O` (configuration not stated), the AC50 was 4.18 µM.

For the compound `O=C1c2ccccc2NC(c2ccc(-c3ccc(Br)cc3)o2)N1O` (configuration not stated), the AC50 is 7.96 µM.

For `CCN(CCO)C1CC(=O)N(c2ccccc2C)C1=O` (configuration not stated), the AC50 was 1.26 µM.

For `O=C1NC(=S)S/C1=C\c1cc2ccccc2nc1N1CCCCC1`, the AC50 is 8.4 µM.

Regarding `COc1cc(OC)cc(N2C(=O)CC(N3CCC(C(=O)N4CCCCC4)CC3)C2=O)c1` (configuration not stated), the AC50 was 8.21 µM.

Take `O=c1oc2ccccc2c(O)c1Cc1cc(Cl)c2cccnc2c1O`: the AC50 is 3.36 µM.

Regarding `O=C1S/C(=C\c2ccc(N3CCOCC3)o2)C(=O)N1Cc1c(F)cccc1Cl`, the AC50 was 11.1 µM.

Take `Oc1c(Cl)cccc1Cc1cc(Cl)cc(Cl)c1O`: the AC50 is 0.618 µM.

For `Cc1cccc(N2CCN(S(=O)(=O)c3c(C)noc3/C=C/N(C)C)CC2)c1C`, the AC50 is 8.39 µM.

As for `CC1=C(O)C(=O)C=C2C1=CC=C1C2(C)CCC2(C)C3CC(C)(C(=O)O)CCC3(C)CCC12C` (configuration not stated), the AC50 was 1.48 µM.

Regarding `COc1ccc(C(=O)/C=C/c2ccc(-c3ccccc3)cc2)cc1CSCC(=O)O`, the AC50 is 6.01 µM.

Consider `CC(NNC(=S)N1CCN(c2ccccn2)CC1)c1nccc2ccccc12` (configuration not stated), for which the AC50 is 2.74 µM.

As for `CCCOc1ccc(N2C(=O)CC(N3CCC(C(=O)OCC)CC3)C2=O)cc1` (configuration not stated), the AC50 is 6.07 µM.

For the compound `O=C1C=CC2(O[C@H](c3ccccc3)[C@@H](c3ccccc3)O2)[C@H](Sc2ccccc2O)C1`, the AC50 is 3.46 µM.

For `CCOC(=O)c1ccc(NC(=O)CC2C(=O)OCCN2CC)cc1` (configuration not stated), the AC50 is 4.28 µM.

With `COc1ccc(N=Nc2ccc(O)c3ncccc23)cc1`, the AC50 was 4.61 µM.

Turning to `CC[C@H](C)/C=C(C)/C=C/C1=CC2=C(Cl)C(=O)[C@](C)(OC(C)=O)C(=O)C2=CO1`, the AC50 was 2.11 µM.

Turning to `Cc1cc(N2C(=O)C=CC2=O)c([N+](=O)[O-])cc1C`, the AC50 is 1.18 µM.

For `CC(=O)SC(C[N+](=O)[O-])c1cn(C(C)=O)c2ccccc12` (configuration not stated), the AC50 was 1.57 µM.

For `O=C1C(Cl)=C(Oc2ccccc2)C(=O)c2ccccc21`, the AC50 was less than 0.195 µM.

For `O=C(OCC(=O)N1CCN(C(=O)c2ccco2)CC1)c1cc(-c2cccc(Br)c2)nc2ccccc12`, the AC50 is 4.39 µM.

In the case of `CN(C)/C=C/C(=O)c1ccc2noc(-c3ccccc3)c2c1`, the AC50 was 8.37 µM.

Consider `CC1=NOC(=O)/C1=C/c1ccc(-c2ccc(Cl)cc2)o1`, for which the AC50 was 2.43 µM.

As to `CCn1c(CNc2ccc(Cl)cc2)nnc1SCc1ccc(Cl)cc1`, the AC50 is 4.37 µM.

`Cc1cccnc1Nc1nc(-c2ccccn2)cs1`: the AC50 was 4.32 µM.

For the compound `C[C@H]1C[C@@H](C)C(=O)[C@@H]([C@H](O)CC2CC(=O)NC(=O)C2)C1`, the AC50 is less than 0.195 µM.

`Oc1c(CN2CCc3ccccc3C2)cc(Cl)c2cccnc12`: the AC50 was 7.82 µM.

For `Cc1ccc2nc(-c3ccc(NS(C)(=O)=O)cc3)cc(-c3ccccc3)c2c1`, the AC50 is 2.95 µM.

Turning to `O=C(Nc1nc(-c2ccco2)c(-c2ccco2)s1)c1ccco1`, the AC50 was 6.08 µM.

Take `O=c1ccc(N=Nc2ccccc2)ccc1O`: the AC50 is 1.48 µM.

Take `Cc1cccc(N=Nc2ccc(O)c3ncccc23)c1`: the AC50 was 2.25 µM.

`CC(=O)NC(c1ccc(C(C)C)cc1)c1ccc2cccnc2c1O` (configuration not stated): the AC50 is 2.24 µM.

In the case of `O=C1C=CC(=O)N1N(c1ccccc1)c1ccccc1`, the AC50 was 3.38 µM.

Turning to `O=[N+]([O-])c1ccc(C=Nc2cccc3ccccc23)s1`, the AC50 was 8.33 µM.

Take `Cc1ccc(N/N=C(\C#N)C(N)=S)c(C)c1`: the AC50 is 1.32 µM.

As for `O=C(N/N=C/c1cc2c3c(c1O)CCCN3CCC2)c1ccccc1O`, the AC50 is 1.42 µM.

As for `CCCCC(=O)NC(c1ccc(Cl)cc1)c1ccc2cccnc2c1O` (configuration not stated), the AC50 was 16.4 µM.

For `Clc1ccc(COC(Cn2ccnc2)c2ccc(Cl)cc2Cl)cc1` (configuration not stated), the AC50 is less than 0.195 µM.

`O=S(=O)(c1c(F)cccc1F)N(CCc1ccc(F)cc1)C[C@@H](O)COCc1ccccc1`: the AC50 was 1.2 µM.

On to `O=C1/C(=C\c2cccc(O)c2O)SC(=S)N1Cc1ccccc1`, for which the AC50 was 9.6 µM.

Regarding `O=C1C=CC(=O)N1c1cccc(-c2ccccc2)c1`, the AC50 was less than 0.195 µM.

Take `O=C1NC(=S)S/C1=C\C=C\c1ccc([N+](=O)[O-])o1`: the AC50 was 2.45 µM.

For `O=C1C2(Cl)C3(Cl)C4(Cl)C(Cl)(Cl)C5(Cl)C3(Cl)C1(Cl)C5(Cl)C24Cl` (configuration not stated), the AC50 was 2.93 µM.

Consider `CCN(CC)S(=O)(=O)c1cccc(C(=O)NCC(c2ccccc2)N(C)C)c1` (configuration not stated), for which the AC50 is 3.92 µM.

For the compound `O=C(C=Cc1ccccn1)c1ccccc1O`, the AC50 is 3 µM.

With `CN(C)/C=C/C(=O)c1ccc2noc(-c3cccc(F)c3)c2c1`, the AC50 was 13.5 µM.

On to `CN(C)/C=C/C(=O)c1ccc(Oc2ccccc2)cc1`, for which the AC50 was 3.92 µM.

Consider `CC(C)(C)C(=O)NCC12C=CC(O1)C1C(=O)N(c3ccccc3)C(=O)C12` (configuration not stated), for which the AC50 is 5.05 µM.

As to `O=C(Nc1nnc(-c2ccc(F)cc2)o1)c1cc(Cl)sc1Cl`, the AC50 was 2.43 µM.

As to `CCCCCCc1cc2cc(S(=O)(=O)c3ccc(Cl)cc3)c(=O)oc2cc1O`, the AC50 was 0.745 µM.

Consider `Cc1ccc(N=Cc2c(C)[nH]n(-c3nc4ccccc4[nH]3)c2=O)cc1`, for which the AC50 is 2.4 µM.

In the case of `c1ccc(C(=NNc2nc3ccccc3s2)c2ccccn2)cc1`, the AC50 was 22.3 µM.

`Cc1ccc(OCC(=O)NNC(=S)NC(=O)C(C)(C)C)c(Br)c1`: the AC50 was 5.05 µM.

As to `CCOC(=O)C1=Nc2ccccc2C1=[N+]=[N-]`, the AC50 is 0.532 µM.

Consider `CCc1ccc(OCC(=O)NNC(=S)NC(=O)C2CC2)c(Br)c1`, for which the AC50 is 1.12 µM.

As for `Cc1ccc(NS(=O)(=O)c2ccc(N3CCN(c4ccc(O)cc4)CC3)c([N+](=O)[O-])c2)c(C)c1`, the AC50 was 5.7 µM.

Consider `CC1=NOC(=O)/C1=C\c1ccc(-c2ccc(Br)cc2)o1`, for which the AC50 was 4.51 µM.

Consider `CCCCCCCCCCCCCCCCn1cc[n+](C)c1`, for which the AC50 is 2.89 µM.

Consider `Cc1ccc(S(=O)(=O)N(C(=O)c2ccncc2)c2ccc(OC(=O)c3ccncc3)cc2)cc1`, for which the AC50 was 0.863 µM.

The same test, now with this note: yeast expressing the parasite Hsp90, ATP luminescence, at 26 µM (top of the series).
`COc1ccc(NC(=S)Nc2ccc3snnc3c2)cc1`: the activity change, negative = inhibition is -20.2% (inactive).

Turning to `Cc1ccc2nc(-c3ccc(NS(=O)(=O)c4ccc(F)cc4)cc3)sc2c1`, the activity change, negative = inhibition is 144% (inactive).

With `Cc1ccc(/C=C2/NC(=O)N(Cc3ccc(Br)cc3)C2=O)o1`, the activity change, negative = inhibition was 47.3% (inactive).

Turning to `Cc1cc(/C=c2\sc3nc4ccccc4n3c2=O)c(C)n1-c1ccc(C(=O)O)cc1`, the activity change, negative = inhibition is 22.6% (inactive).

As for `Cc1cccc(C)c1NC(=O)COC(=O)c1ccc([N+](=O)[O-])o1`, the activity change, negative = inhibition was -33.6% (inactive).
